“Also recorded” adds a separate entry of the source. Where a name gives a salt, the structure may show the parent alone.
Columns and labels:
SW620 cells [1] = assay: TEM analysis of mitochondria in SW620 cells; assay type: cell-based, human
Protocol: (§1) Cells were grown in MEM or DMEM, washed twice with PBS and fixed for 5 minutes in Karnovsky fixative (2.5% glutaraldehyde, 2.5% paraformaldehyde in cacodylate buffer pH 7.4) on the tissue culture plate. Cells were then harvested, and transferred to 1.5 ml tube for further 1 h fixation at room temperature. The cells were then stored O.N at 4C° after which the samples were washed in 0.1 M cacodylate buffer and post-fixed with 1% OsO4 in 0.1 M sodium cacodylate buffer (Sigma-Aldrich, Israel) for 1 h. Samples were then dehydrated in alcohol and propylene oxide followed by embedding in Agar Mix. Thin sections (60 nm) were cut, stained with uranyl acetate and lead citrate, and observed in a FEI Tecnai transmission electron microscope.

CC cells = assay: Autophagy in CC cells (TEM, LC3 immuno-staining, WB); assay type: cell-based, human
Protocol: (§2) WB analyses were carried out as previously described before. In brief, cells were lysed in RIPA buffer mixed with protease inhibitors and separated on SDS-PAGE gel, transferred to PVDF membrane treated with 5% skim milk to exclude non-specific background and incubated with a primary antibody over-night. The membrane was incubated for 1 h with a secondary antibody conjugated to Horseradish Peroxidase (HRP). The protein-antibody complex was visualized using the SuperSignal West Pico Chemiluminescent Substrate (Thermo scientific, USA).
Cells were fixed with 4% paraformaldehyde (30 min) and incubated with Permeabilization Solution containing 0.1% Triton X-100 (Sigma-Aldrich, Israel) in PBS at room temperature for 1 h. Nonspecific binding was blocked with PBS containing 10% fetal bovine serum for 1 h at room temperature. Cells were incubated with specific antibodies diluted 1:100 overnight at 4° C. Cells were washed (5 min) in PBS containing 0.2% Tween-20 (Sigma-Aldrich, Israel) to remove non-specific binding. Bound primary antibodies were detected by Alexa Fluor® 488 goat anti-mouse IgG antibody or Alexa Fluor® 594 goat anti-rabbit IgG antibody (Molecular Probes, Invitrogen, U.K.). Nuclei were visualized by incubation with Hoechst 33342 solution for 10 min (1:500). Nonspecific staining, as determined by binding to the secondary antibody only, was negligible. The immunostained slides were examined under the fluorescence microscope AxioimagerZ1 (Zeiss, Germany) or confocal fluorescence microscope (Olympus-FV1000).
as §1, with “Samples were then dehydrated in alcohol and propylene oxide followed by embedding in Agar Mix. Thin sections (60 nm) were cut, stained with uranyl acetate and lead citrate, and observed in a FEI Tecnai transmission electron microscope.” left out

PARP-1 = PARP-1 poly-ADP-ribosylation activity in CC cells (WB); assay type: cell-based, human; settings: CC cells
Protocol: as §2

Fer-PARP-1 complex = target: T1, Fer-PARP-1 complex (Homo sapiens, UniProt P16591); assay: Co-immunoprecipitation of Fer and PARP-1 from SW620 nuclear lysates; assay type: cell-based
T1 construct: endogenous in cells; host or cells: SW620 cells, nuclear lysates

SW620 cells [2] = assay: TUNEL assay in SW620 cells; assay type: cell-based, human; settings: 12 h
Protocol: Samples of 1×10^6 cells were inoculated into a 6 well plate containing a cover slip, and fixed for 30 min with 4% paraformaldehyde following adhesion. The cells were then subjected to TUNEL analysis according to manufacturer's instructions (Roche, USA).

mice sperm cells = assay: Sperm cell motility assay (CASA); assay type: cell-based; settings: 2 μM
Protocol: For isolation of spermatogenic cells, mice testes were removed from out-bred (ICR) mice and digested in Isolation Medium (DMEM with 2 mM glutamine, 1.5 mM sodium pyruvate, 10% fetal calf serum, 25 μg/ml ampicillin and 1× non-essential amino acids) with added 2 mg/ml collagenase (Sigma-Aldrich) for 5 min at 37° C., and washed twice. Extracellular DNA and proteins were removed with 1 unit/ml DNAse and 0.3 ml 0.5% trypsin at 37° C. for 5 min. Cells were filtered through a nylon mesh with 50 μm pores and incubated in Isolation Medium with 0260 or control for 24 h, and examined under the microscope. Mouse mature caudal spermatozoa were obtained by dissecting the cauda epididymis of male ICR mice and puncturing them in a dish containing 3 ml PBS to enable sperm release out of the epididymal tissue. The sperm suspension was filtered through a nylon mesh with 50 μm pores, centrifuged at 1000×g for 5 min and re-suspended in a buffer compatible with the experimental procedure.
Sperm cell motility was evaluated using the Computer-Aided Sperm Analysis (CASA). Samples (5 μl) were placed in standard count four chamber slide (Leja, Nieuw-Vennet, Netherlands) and analyzed by CASA device with IVOS software (version 12, Hamilton-Thorne Biosciences), acquiring up to ten sequels, 10 s long, for each sample, using parameters identifying mouse sperm motility. The proportion of hyper-activated ([…]) spermatozoa in each sample was determined using the SORT function of the CASA instrument. HAM was defined by curvilinear velocity (VCL)>90 μm/s, linearity (LIN) b20% and an amplitude of lateral head (ALH)>7 μm.

Fer [3] = target: T2, Fer (Homo sapiens, UniProt P16591); assay: Fer autophosphorylation in RKO CC cells (IP/WB); assay type: cell-based; parameters: endogenous in cells; settings: 24 h
Protocol: as §2
(§3) Protein lysates (1 mg) were prepared from tissues of adult mice according to previously described protocol, including incubation with Protein A Sepharose (GE Healthcare) to avoid nonspecific binding. Protein lysates were incubated with specific antibodies diluted 1:100 overnight at 4° C. Antigen-antibody complexes were precipitated with Protein A Sepharose, washed twice in PBS and eluted in Sample Buffer (2% SDS, 1% DTT 0.02% bromophenol blue 10% glycerol, 12.5 mM EDTA, 50 mM Tris-HCl pH 6.8) at room temperature for 10 min and at 100° C. for 8 min. Eluates were separated on SDS-PAGE and visualized by WB using specific antibodies.

Fer [4] = target: T2, Fer; assay: Immunoprecipitation of Fer from 0260 treated SW620 CC cells; assay type: binding; parameters: endogenous in cells; host or cells: SW620 colon carcinoma cells
Protocol: as §3
To examine the effect of 0260 micellar formulation on Fer in malignant cells, the kinase was immuno-precipitated from untreated and from 0260 treated SW620 CC cells.

T2 sequence (P16591 whole entry): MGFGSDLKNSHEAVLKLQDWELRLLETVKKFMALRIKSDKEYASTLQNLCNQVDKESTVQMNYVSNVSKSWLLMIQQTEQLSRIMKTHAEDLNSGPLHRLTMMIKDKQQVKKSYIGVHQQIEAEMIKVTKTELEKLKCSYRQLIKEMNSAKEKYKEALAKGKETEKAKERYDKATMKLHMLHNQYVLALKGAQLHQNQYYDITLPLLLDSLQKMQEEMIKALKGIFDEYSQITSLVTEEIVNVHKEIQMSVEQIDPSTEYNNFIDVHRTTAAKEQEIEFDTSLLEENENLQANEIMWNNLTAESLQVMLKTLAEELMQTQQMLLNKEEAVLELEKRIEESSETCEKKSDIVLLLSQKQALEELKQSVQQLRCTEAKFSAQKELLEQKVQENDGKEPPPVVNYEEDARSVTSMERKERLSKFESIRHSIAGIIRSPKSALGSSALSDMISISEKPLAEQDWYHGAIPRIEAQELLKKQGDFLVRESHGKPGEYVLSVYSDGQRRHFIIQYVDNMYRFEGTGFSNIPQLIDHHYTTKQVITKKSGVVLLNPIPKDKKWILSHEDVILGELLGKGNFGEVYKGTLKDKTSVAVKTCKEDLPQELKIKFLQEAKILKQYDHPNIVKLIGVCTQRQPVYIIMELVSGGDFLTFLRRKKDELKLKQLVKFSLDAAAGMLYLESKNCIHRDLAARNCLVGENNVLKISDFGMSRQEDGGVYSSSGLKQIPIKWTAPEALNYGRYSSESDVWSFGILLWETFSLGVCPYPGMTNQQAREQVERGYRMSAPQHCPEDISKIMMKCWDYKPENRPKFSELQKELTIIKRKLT
T1 sequence (P16591 whole entry, one chain of several): as the sequence (P16591 whole entry) above

CC(C)c1ccc(-c2cn3nc(N4CCC(CN5CCN(C)CC5)CC4)sc3n2)cc1 [compound 0260, tartarate salt of 6-(4-isopropyl-phenyl)-2-{4-[(4-methyl-piperazin-1-yl)methyl]piperidin-1-yl}-imidazo [2,1-b][1,3,4]thiadiazole]
mitochondria morphology (TEM) (SW620 cells [1]; 16 h): deformation and loss of the normal elongated shape of mitochondria
mitochondria morphology (TEM) (SW620 cells [1]; 24 h): the mitochondria underwent lysis
mitochondria morphology (TEM) (SW620 cells [1]; 24 h, high glucose conditions): mitochondrial damage was still observed
autophagy / autophagosomes (CC cells; TEM and LC3 immuno-staining): autophagy was induced and autophagosomes accumulated
level of LC3II (CC cells; WB): relative increase
poly-ADPr / PARP-1 poly-ADP-ribosylation activity (PARP-1): induction of poly-ADPr; also recorded: significant increase
association of Fer with PARP-1 (Fer-PARP-1 complex): dissociated Fer from PARP-1
DNA integrity (TUNEL) (SW620 cells [2]): did not reveal any effect
percentage of sperm cells exhibiting progressive motility (mice sperm cells; 5 min): significantly decreased
progressive motility (mice sperm cells; 30 min): practically reduced to zero
total motility (mice sperm cells; 30 min): practically reduced to zero
Fer autophosphorylation level in cells (Fer [3]): inhibitory effect
IP of Fer by antibodies toward the N-terminal tail (Fer [4]): did not disable the IP of Fer
